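Assay format: 96-well plates, 48-hour exposure. GI50 is the concentration that inhibits growth by half. Definition used: TGI = concentration required for complete inhibition of growth.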

Among the test systems are M14 melanoma; MDA-MB-231 breast; NCI-H23 lung; OVCAR-4 ovarian; OVCAR-5 ovarian; RXF 393 renal; SF-539 CNS; SNB-19 CNS; SNB-75 CNS; SW-620 colon.
Experiment in all cases: NCI tumour cell line growth inhibition, 48 h

`Cc1c[n+](Cc2ccc3ccccc3c2)cn1Cc1ccc2ccccc2c1`: the GI50 was 1.58 µM with M14 melanoma; 1.54 µM with MDA-MB-231 breast; 1.49 µM with NCI-H23 lung; 0.583 µM with OVCAR-4 ovarian; 1.81 µM in the assay with OVCAR-5 ovarian; 1.62 µM with RXF 393 renal. The GI50 in the assay with SF-539 CNS was 1.57 µM; in the assay on SNB-19 CNS, 1.54 µM; with SNB-75 CNS, 1.09 µM; in the assay on SW-620 colon, 1.64 µM. Also, the TGI with M14 melanoma is 3.66 µM; with MDA-MB-231 breast, 3.24 µM; in the assay with NCI-H23 lung it was 3.97 µM; in the assay on OVCAR-4 ovarian, 2.35 µM; in the assay on OVCAR-5 ovarian it was 3.95 µM; in the assay with RXF 393 renal, 3.47 µM. For the same compound, the TGI with SF-539 CNS came to 3.05 µM; in the assay on SNB-19 CNS it was 3.14 µM; in the assay on SNB-75 CNS it was 2.51 µM; in the assay on SW-620 colon it was 3.74 µM.
`CC(C)c1ccccc1S(=O)c1ccccc1C(C)(C)O` (centres undefined): the TGI in the assay with M14 melanoma, in the assay with MDA-MB-231 breast, in the assay on NCI-H23 lung, with OVCAR-4 ovarian, with OVCAR-5 ovarian and with RXF 393 renal was over 100 µM throughout. For the same compound, the TGI in the assay with SF-539 CNS, with SNB-19 CNS, in the assay with SNB-75 CNS and with SW-620 colon was over 100 µM throughout.
Turning to `COc1ccc(/C=c2/sc3n(c2=O)C(c2ccc(OC)c(OC)c2)C2=C(N=3)c3cc(F)ccc3OC2)cc1` (centres undefined), the GI50 in the assay on M14 melanoma was 36.9 µM; in the assay with MDA-MB-231 breast, 14.8 µM; in the assay on NCI-H23 lung, 3.69 µM; in the assay on OVCAR-4 ovarian, over 23.2 µM; in the assay on OVCAR-5 ovarian, 52.8 µM; in the assay with RXF 393 renal it was over 100 µM. Besides, the GI50 was 43 µM in the assay on SF-539 CNS, over 53.2 µM in the assay with SNB-19 CNS, 16.1 µM in the assay on SNB-75 CNS and 50.5 µM with SW-620 colon. Also, the TGI with M14 melanoma was over 100 µM; in the assay on MDA-MB-231 breast, over 75.1 µM; in the assay on NCI-H23 lung it was 26.1 µM; in the assay with OVCAR-4 ovarian it was over 74.1 µM; in the assay with OVCAR-5 ovarian it was over 100 µM; in the assay on RXF 393 renal it was over 100 µM. For the same compound, the TGI was over 100 µM in the assay on SF-539 CNS, over 100 µM in the assay with SNB-19 CNS, 98.2 µM in the assay with SNB-75 CNS and over 100 µM in the assay with SW-620 colon.
Regarding `O=C(O)c1c(-c2nccc3ccccc23)[nH]c(-c2ccccc2)c1S(=O)(=O)O`, the TGI with M14 melanoma, in the assay on MDA-MB-231 breast, in the assay on NCI-H23 lung, with OVCAR-4 ovarian, with OVCAR-5 ovarian and with RXF 393 renal was over 100 µM each time. Moreover, the TGI with SF-539 CNS, in the assay on SNB-19 CNS, with SNB-75 CNS and in the assay with SW-620 colon was over 100 µM in each case.
As to `O=C1/C(=C\c2cccn2Cc2ccccc2)c2ccccc2N1c1c(Cl)cccc1Cl`, the GI50 in the assay with M14 melanoma is over 100 µM; in the assay on MDA-MB-231 breast it was 5.83 µM; with NCI-H23 lung, over 63 µM; in the assay on OVCAR-4 ovarian, 0.196 µM; in the assay with OVCAR-5 ovarian, 4.37 µM; in the assay on RXF 393 renal it was over 100 µM. Also, the GI50 with SF-539 CNS is over 100 µM; in the assay with SNB-19 CNS, over 100 µM; in the assay with SNB-75 CNS it was over 22.9 µM; in the assay on SW-620 colon, over 100 µM. Further, the TGI in the assay with M14 melanoma is over 100 µM; in the assay on MDA-MB-231 breast, over 100 µM; in the assay on NCI-H23 lung, over 100 µM; in the assay with OVCAR-4 ovarian, over 60.4 µM; in the assay on OVCAR-5 ovarian, over 100 µM; in the assay with RXF 393 renal it was over 100 µM. In addition, the TGI with SF-539 CNS, with SNB-19 CNS, with SNB-75 CNS and in the assay on SW-620 colon was over 100 µM each time.
For `Nc1nc(Br)nc2c1ncn2C1CC(O)C(CO)O1` (centres undefined), the GI50 in the assay on M14 melanoma was 1.1 µM; in the assay on MDA-MB-231 breast it was over 71.2 µM; in the assay with NCI-H23 lung it was 1.08 µM; in the assay with OVCAR-4 ovarian it was over 100 µM; in the assay with OVCAR-5 ovarian, 90.8 µM; in the assay with RXF 393 renal it was 32.8 µM. Also, the GI50 with SF-539 CNS is 27.4 µM; in the assay with SNB-75 CNS, over 100 µM; with SW-620 colon, 16.5 µM. Besides, the TGI in the assay with M14 melanoma is 8.56 µM; with MDA-MB-231 breast it was over 100 µM; in the assay with NCI-H23 lung, over 100 µM; with OVCAR-4 ovarian it was over 100 µM; in the assay with OVCAR-5 ovarian, over 100 µM; in the assay on RXF 393 renal, over 100 µM. Besides, the TGI was over 100 µM in the assay with SF-539 CNS, over 56.9 µM with SNB-19 CNS, over 100 µM in the assay on SNB-75 CNS and over 100 µM in the assay on SW-620 colon.
With `CCN(CC)CCOc1ccc(/C(=C(\C)c2ccc(F)c(OC)c2)c2ccc(Cl)cc2)cc1`, the GI50 was 2.81 µM in the assay on M14 melanoma; 2.54 µM with MDA-MB-231 breast; 2.39 µM in the assay on NCI-H23 lung; 2.1 µM in the assay on OVCAR-4 ovarian; 2.4 µM with OVCAR-5 ovarian; 2.18 µM in the assay with RXF 393 renal. Moreover, the GI50 was 2.45 µM in the assay on SF-539 CNS, 2.83 µM with SNB-19 CNS, 2.02 µM with SNB-75 CNS and 2.12 µM in the assay on SW-620 colon. Also, the TGI with M14 melanoma amounted to 5.64 µM; with MDA-MB-231 breast, 4.8 µM; in the assay with NCI-H23 lung, 4.97 µM; in the assay with OVCAR-4 ovarian, 4.45 µM; in the assay with OVCAR-5 ovarian it was 4.83 µM; with RXF 393 renal it was 4.36 µM. The TGI in the assay on SF-539 CNS was found to be 4.74 µM; with SNB-19 CNS, 5.17 µM; in the assay on SNB-75 CNS, 4.84 µM; in the assay on SW-620 colon, 4.28 µM.

The values above are taken from PubChem BioAssay (NCI).
